Experimental findings from ChEMBL document CHEMBL3243946, “A comparison of the antiserotonin, antihistamine, and anticholinergic activity of cyproheptadine with analogues having furan nuclei fused to the 10,11-vinylene bridge” (1977) are described below.

Each structure is given as a SMILES string. Calls of active or inactive are those of the source. No cut-off for these calls is given here. A value given as a limit tells only on which side of the number the result lay.

The subject of experiment [1] is Rattus norvegicus. Put plainly: Antiserotonin activity in Sprague-Dawley rat assessed as inhibition of feet weight gain at 10 mg/kg, sc after 30 mins. Format: functional, organism-based. Also noted: dose 10 mg/kg.
Experiment [2] concerns Mus musculus. Briefly: Anticholinergic activity in ip dosed Carworth CF1 mouse assessed as dose required to produce pupil dilation to 1.5 micrometer units in 50% mouse. It is filed as functional.
The species named for experiment [3] is Cavia porcellus. Briefly: animal or person. Format: functional. The settings on record: Duncan-Hartley, ip.
Description: Antihistamine activity in ip dosed Duncan-Hartley guinea pig assessed as protection of animal from death caused by histamine aerosol-induced bronchoconstriction
The subject of experiment [4] is Mus musculus. Briefly: Anticholinergic activity in Carworth CF1 mouse assessed as dose required to produce pupil dilation to 1.5 micrometer units in 50% mouse at 324 mg/kg, ip. It is filed as functional, organism-based. Also noted: dose 324 mg/kg.
Experiment [5] has as its system Cavia porcellus. Put plainly: Antihistamine activity in Duncan-Hartley guinea pig assessed as protection of animal from death caused by histamine aerosol-induced bronchoconstriction at 12.5 mg/kg, ip. Format: functional, organism-based. Details: dose 12.5 mg/kg.
Experiment [6] deals with Mus musculus. Put plainly: Anticholinergic activity in ip dosed Carworth CF1 mouse assessed as pupil dilation to 15 micrometer units in 100% mouse. It is filed as functional.
Experiment [7] has as its system Rattus norvegicus. Put plainly: Antiserotonin activity in sc dosed Sprague-Dawley rat assessed as inhibition of feet weight gain after 30 mins. Conditions: 0.5 h.

By ED50 is commonly meant the dose that gives a 50% effect, or the effect in half of the subjects. With `CN1CCC(=C2c3ccccc3C(CO)=C(CO)c3ccccc32)CC1`, in the experiment with Rattus norvegicus [1], the inhibition entry was “inactive”. Moreover, in the experiment with Mus musculus [2], the ED turned out to be 4 mg/kg. In addition, the 50% effect level in the experiment filed under Cavia porcellus [3] (ED50) was put at a dose of 12.5 mg/kg.
Turning to `CN1CCC(=C2c3ccccc3C3=C(c4ccccc42)C2CCC3O2)CC1`, the inhibition result in the experiment with Rattus norvegicus [1], in the experiment on Mus musculus [4] and with Cavia porcellus [5] was “inactive” throughout.
Turning to `CN1CCC(=C2c3ccccc3C3=C(C(=O)OC3)c3ccccc32)CC1.O=C(O)C(=O)O`, the inhibition entry in the experiment with Rattus norvegicus [1] was “inactive”. The ED in the experiment on Mus musculus [6] is less than 4 mg/kg. Besides, the ED50 in the experiment listed under Cavia porcellus [3] stood at 9.7 mg/kg.
With `CN1CCC(=C2c3ccccc3-c3cocc3-c3ccccc32)CC1`, the inhibition entry in the experiment on Rattus norvegicus [1] and with Cavia porcellus [5] was “inactive” throughout. Moreover, the ED in the experiment with Mus musculus [2] was 36 mg/kg.
With `CN1CCC(=C2c3ccccc3C3=C(c4ccccc42)C2C=CC3O2)CC1`, the inhibition entry in the experiment on Rattus norvegicus [1], in the experiment on Mus musculus [4] and in the experiment with Cavia porcellus [5] was “inactive” in each case.
`Cc1occ2c1-c1ccccc1C(=C1CCN(C)CC1)c1ccccc1-2`: the inhibition entry in the experiment on Rattus norvegicus [1] and in the experiment on Cavia porcellus [5] was “inactive” throughout. Moreover, the ED with Mus musculus [2] amounted to 4 mg/kg.
Take `CN1CCC(=C2c3ccccc3C3=C(c4ccccc42)C2(C)C=CC3O2)CC1` (stereo not drawn): the inhibition entry in the experiment on Rattus norvegicus [1], with Mus musculus [4] and in the experiment on Cavia porcellus [5] was “inactive” throughout.
Regarding `CN1CCC(=C2c3ccccc3C=Cc3ccccc32)CC1.Cl` [CYPROHEPTADINE HYDROCHLORIDE], the ED50 in the experiment on Rattus norvegicus [7] is 0.02 mg/kg; in the experiment filed under Cavia porcellus [3], 0.05 mg/kg. In addition, the ED in the experiment with Mus musculus [2] was determined as 4 mg/kg.
For the compound `C1=CC2OC1C1=C2c2ccccc2C(=C2CCNCC2)c2ccccc21`, the inhibition result with Rattus norvegicus [1], in the experiment on Mus musculus [4] and in the experiment on Cavia porcellus [5] was “inactive” throughout.
Regarding `CN1CCC(=C2c3ccccc3C3COCC3c3ccccc32)CC1` (stereo not drawn), the inhibition entry with Rattus norvegicus [1], in the experiment with Mus musculus [4] and in the experiment with Cavia porcellus [5] was “inactive” each time.
For the compound `c1ccc2c(c1)C(=C1CCNCC1)c1ccccc1-c1cocc1-2`, the inhibition result in the experiment on Rattus norvegicus [1], in the experiment on Mus musculus [4] and in the experiment on Cavia porcellus [5] was “inactive” throughout.
